# According to patent US6218378A, “Anti-tumor agents comprising pyridyl-substituted metal-diphosphine complex” (priority 1994, dated 2001):
# Read-outs that look alike come from different tables or passages of the source.
# What was measured:
# [1] = test system: human tumour cell lines; experiment: selectivity of cytotoxicity over all cell lines evaluated (Tables 1 and 2); assay type: cell-based
# From the text: The origins of the human melanoma cell line MM96 has been described in Whitehead et al., 1973, Pigment Cell 1 383-389. The cell line JAM is described in Ward et al., 1987, Cancer Res. 47 2662-2667. The origin of the ovarian tumour line CI-80-13S has been described in Bertoncello et al., 1985, Aust. J. Exp. Biol. Med. Sci. 63 241-243. The origin of the cervical carcinoma cell line HeLa has been described in Maynard et al., 1986, Cancer Res. 46 5009-5093. The subclone HeLa-S1a was derived by stably transfecting HeLa with PAI-2 cDNA described in Schleuning et al., 1987, Mol. Cell. Biol. 7 4564-4567 in the sense orientation under the control of the cyto-megalovirus (CMV) promoter. The stably infected subclone was isolated following G418 selection and expression of the PAI-2 transgene characterised by immunoblot analysis and quantitated by ELISA. All of these cell lines have been used before for carrying out cell survival assays referred to in FIGS. 1-4. Cells were cultured at 37° in 5% CO2 /air in Roswell Park Memorial Institute medium 1640 containing 5% foetal calf serum, 100 μg/ml streptomycin, 100 IU/ml penicillin, 1 mM pyruvate, 50 μM nicotinamide and 3 mM HEPES.
# Cells were seeded in microtitre plates (lowest number for fastest growing cells: 1000 HeLa, 2000 MM96, […] CI-80-13S cells per 6 mm well in 100 μl), normally but not necessarily allowed to attach overnight, then 5 dilutions of the drug were added to duplicate wells. After an overnight incubation to equilibrate the pH, the lids were quickly taped around the edge to prevent evaporation. The plates were incubated for 5-7 days, until the controls were nearly confluent. Cell growth/morphology was scored at each dose visually (inverted microscope). The medium was then replaced by 50 μl fresh medium containing 2 u/Ci/ml [methyl-3H]-thymidine (5 Ci/mmol; Radiochemical Centre, Amersham, Bucks., U.K.) and incubated for 2-4 hr. The cells were washed with PBS (0.1 M NaCl, 50 mM phosphate, pH 7.2), detached with 100 μl of PBS containing 0.2 mg/ml trypsin and 10 mM EDTA, and washed onto a glass fibre GF/a filter mat with water using a cell harvester. Later, wells were checked under the microscope to ensure complete detachment and washout. Radioactivity was determined in an LKB Beta Plate counter and the results plotted as log % control cpm versus dose. The ID50 (dose required to give 50% survival) was interpolated from this survival curve.
# (§1) The sensitive CH1 cell line was established from a patient with drug-sensitive disease and its resistant variant (CH1-cisR) was generated by prolonged in vitro exposure to cisplatin during which it acquired more efficient DNA repair as described in Kelland et al., 1992, Cancer Research 52 3857-3864. The sensitive 41M cell line was also established from a patient with a sensitive tumor and its resistant variant (41M-cisR) was generated in the same way but acquired decreased uptake across the cell membrane (Kelland et al., 1992, supra). The intrinsically-resistant SKOV-3 ovarian carcinoma cell line has high glutathione levels as described in Mistry et al., 1991, Brit. J. Cancer 64 215-220 and reduced levels of bi-functional cisplatin-DNA lesions as described in McKeage et al., 1994, Brit. J. Cancer 69 1-7. The characteristics of the cell line pairs CH1/CH1 cisR, 41M/41McisR and 41M/SKOV3 are described in Table 3.
# The cytotoxicity assay used sulforhodamine B which stains the basic amino acids. Cells (5000 or 2500 for SKOV-3) were seeded into 96 well microtitre plates (Linbro, Flow Laboratories Inc., USA) in 0.1 ml of medium. After an overnight incubation, the metal phosphine compounds were dissolved in 0.9% NaCl or ethanol and diluted with medium, were added at concentrations ranging from 0.005 to 50 μM to quadruplicate wells. After 96 hrs incubation, the medium was removed and cells were fixed in 0.2 ml of cold 10% (w/v) trichloroacetic acid (May & Baker Ltd., Dagenham, England) for 30 mins at 4° C. The plates were washed five times with tap water. […]
# [2] = test system: HeLa-S1a; details: ID37 data from Ying Dong et al. submitted for publication; cited from earlier work
# [3] = test system: mitochondrial membrane / oxidative phosphorylation; details: cited from earlier work
# [4] = test system: Beagle dogs; details: cited from earlier work
# [5] = attributed to lipophilic cationic properties; cited from earlier work
# [6] = test system: tumour models in mice; details: literature; mice; cited from earlier work
# [7] = test system: HeLa; details: ID37 data from Ying Dong et al. submitted for publication; cited from earlier work
# [8] = test system: CI-80-13S; details: ID37 data from Ying Dong et al. submitted for publication; cited from earlier work
# [9] = test system: DNA in tumour cells; details: cited from earlier work
# [10] = test system: JAM; details: ID37 data from Ying Dong et al. submitted for publication; cited from earlier work
# [11] = test system: 41M-cisR; details: data from Kelland et al., 1992; cited from earlier work
# [12] = test system: CH1; details: data from Kelland et al., 1992; cited from earlier work
# [13] = test system: Rhodamine 123 uptake; details: cells treated with cisplatin; cited from earlier work
# [14] = test system: SKOV-3; details: data from McKeage et al., 1994; cited from earlier work
# [15] = test system: 41M; details: data from Kelland et al., 1992; cited from earlier work
# [16] = test system: CH1-cisR; details: data from Kelland et al., 1992; cited from earlier work
# [17] = test system: CH1-cisR; experiment: cytotoxicity assay, sulforhodamine B; assay type: cell-based, human; details: Homo sapiens, CH1cisR, 96 hrs, mean ± SD or individual values when n<3
# Experimental: (§2) In Table 2, reference is made to cell lines 41M, 41M-cisR, SKOV-3, CH1 and CH1-cisR.
# (§3) J. Cancer 69 1-7. The characteristics of the cell line pairs CH1/CH1 cisR, 41M/41McisR and 41M/SKOV3 are described in Table 3.
# (§4) The cytotoxicity assay used sulforhodamine B which stains the basic amino acids. Cells (5000 or 2500 for SKOV-3) were seeded into 96 well microtitre plates (Linbro, Flow Laboratories Inc., USA) in 0.1 ml of medium. After an overnight incubation, the metal phosphine compounds were dissolved in 0.9% NaCl or ethanol and diluted with medium, were added at concentrations ranging from 0.005 to 50 μM to quadruplicate wells. After 96 hrs incubation, the medium was removed and cells were fixed in 0.2 ml of cold 10% (w/v) trichloroacetic acid (May & Baker Ltd., Dagenham, England) for 30 mins at 4° C. The plates were washed five times with tap water. Then 0.1 ml of 0.4% (w/v) sulforhodamine B (Sigma Chemical Co., St. Louis, USA) dissolved in 1% acetic acid (Ajax Chemicals, Australia) was added to the wells and left to stand at room temperature for 15 mins. The plates were then washed five times with 1% acetic acid and left to dry overnight. The next morning, 0.1 ml of 10 mM Tris buffer (Sigma Chemical Co., St. Louis, USA) was then added to each plate to solubilise the dye. Absorbance was read at a wavelength of 570 nm using a 96 well plate reader Dynatech MR 5000 plate reader. Absorbance of treatment cells was expressed as a percentage of positive (drug-free) controls. The results were plotted as percentage growth versus drug concentration.
# [18] = test system: SKOV-3; experiment: cytotoxicity assay, sulforhodamine B; assay type: cell-based, human; details: Homo sapiens, SK-OV-3, 96 hrs, mean ± SD or individual values when n<3
# Experimental: as §2, §3, §4
# [19] = test system: 41M; experiment: cytotoxicity assay, sulforhodamine B; assay type: cell-based, human; details: Homo sapiens, 96 hrs, mean ± SD or individual values when n<3
# Experimental: as §2, §3, §4
# [20] = test system: CH1; experiment: cytotoxicity assay, sulforhodamine B; assay type: cell-based, human; details: Homo sapiens, 96 hrs, mean ± SD or individual values when n<3
# Experimental: as §2, §3, §4
# [21] = test system: 41M-cisR; experiment: cytotoxicity assay, sulforhodamine B; assay type: cell-based, human; details: Homo sapiens, 41McisR, 96 hrs, mean ± SD or individual values when n<3
# Experimental: as §2, §3, §4
# [22] = test system: 41M, 41M-cisR, SKOV-3, CH1, CH1-cisR; experiment: growth inhibition of cisplatin-sensitive and -resistant ovarian cancer cell lines (Table 2, FIG. 5); assay type: cell-based, human; details: 41M/41M-cisR and CH1/CH1-cisR pairs
# From the text: as §1
# as §4, with “concentration. The drug concentration resulting in a 50% growth inhibition was termed the IC50. The passage numbers used for the cytotoxicity assay from each cell line were, CH1 passages 50-58, CH1 cis-R passages 77-83, 41M passages 50-63, 41M cisR 81-92 and SKOV-3 passages 106-128.” for “concentration.”
# [23] = test system: mitochondria of carcinoma derived cells; details: carcinoma derived versus untransformed cells; cited from earlier work
# [24] = from Chen in Cancer Cells 1; cited from earlier work
smiles,measurement,setting,value
[Au+].[Cl-].c1ccc(P(CCP(c2ccccc2)c2ccccc2)c2ccccc2)cc1.c1ccc(P(CCP(c2ccccc2)c2ccccc2)c2ccccc2)cc1 [[Au(dppe)2]Cl],degree of selectivity,[1]; Tables 1 and 2,the least selectivity
same,number of cell lines against which cytotoxic,[1]; nine cell-lines tested / all evaluated,cytotoxic to all the cell lines evaluated
same,ID37,[2],0.073 ± 0.005 µM
same,effect on mitochondrial function,[3],uncouples oxidative phosphorylation via dissipation of the membrane potential
same,toxicities in preclinical trials,[4],"severe cardiac, hepatic and vascular toxicities"
same,hepatotoxicity,[5],severe and unacceptable hepatotoxicity
same,antitumour activity,[6],good antitumour activity
same,ID37,[7],0.95 ± 0.13 µM
same,ID37,[8],0.20 ± 0.03 µM
same,DNA damage,[9],produced DNA-single strand breaks and DNA-protein crosslinks in tumour cells
same,ID37,[10],0.73 ± 0.15 µM
N.N.[Cl][Pt][Cl] [Cisplatin],ID37,[2],0.62 ± 0.08 µM
same,IC50,[11],1200 ± 400 nM
same,IC50,[12],110 ± 10 nM
same,Rhodamine 123 uptake,[13],Rhodamine 123 uptake increases
same,IC50,[14],2100 nM
same,IC50,[15],260 ± 100 nM
same,IC50,[16],710 ± 200 nM
same,ID37,[7],0.29 ± 0.04 µM
same,ID37,[8],4.17 ± 0.5 µM
same,ID37,[10],0.83 ± 0.3 µM
"CCN(CC)c1ccc2c(-c3ccccc3C(=O)O)c3ccc(=[N+](CC)CC)cc-3oc2c1 [Rhodamine, reference compound]",IC50,[17],500 nM
same,IC50,[18],1000 nM
same,IC50,[19],3000 nM
same,IC50,[20],900 nM
same,IC50,[21],1000 nM
same,ID37,[2],0.58 ± 0.08 µM
same,sensitivity of cisplatin resistant cells versus non-resistant cells,[22],the cisplatin resistant cells are more sensitive to Rhodamine than the nonresistant cells
same,accumulation in mitochondria,[23],accumulate in the mitochondria of most carcinoma derived cells more rapidly than in most untransformed cells
same,ID37,[7],2.73 ± 0.28 µM
same,ID37,[8],0.105 ± 0.026 µM
same,ID37,[10],0.90 ± 0.03 µM
same,partition co-efficient,[24],0.34
